# Where two headings read alike, the source gives them in different places. Where no end group is shown, it is not given here. [ ]: non-standard residue; d: D form. Cit = NC(=O)NCCC[C@H](N)C(=O)O; Api = NC1(C(=O)O)CCNCC1; Dab = NCC[C@H](N)C(=O)O; Iph = iodophenylalanine
# System: HELA-654 cells
# Assay: Hela-654 eGFP assay (incucyte imaging, GFP positive cells, 72 h)
# Assay type: cell-based
# Settings: for Percentage of GFP Positive Cells at 72 hours (20 μM): alanine scan, 20 μM of PPMO; for EC50: 72 h; for Percentage of GFP Positive Cells at 72 hours (30 μM): Iph scan, 30 μM of compound
# Method: HELA-654 cells were imaged at 72 hours with an incucyte and the number of GFP positive cells versus total cell counts were calculated with the incucyte image analysis software. Statistical analysis was conducted using a one-way analysis of variance (ANOVA) test with Dunnett's multiple comparison test. Bars represent mean±standard deviation (SD), with P<0.05 was considered to indicate statistical significance, (**** p<0.0001, *** […], ** p<0.01, * p<0.05).
# HELA-654 cells were imaged at 72 hours with an incucyte and the number of GFP positive cells versus total cell counts were calculated with the incucyte image analysis software.
# [1] = chimeric peptide PMO conjugates, read-out: EC50 (at 72 h)
# [2] = CXP1 Dab analogs, read-out: EC50 (at 72 h)
# [3] = CXP1 analogs (unnatural amino acids replaced), read-out: EC50 (72 h)
substance,measurement,setting,value
Ala-Gln-Lys-Thr-Ser-Iph-Gly-Arg-Gly-Pip-Lys-Trp-Lys-Lys (AQKTS[Iph]GRG[Api]KWKK; also: PMO conjugate) [PMO-CXP1B],Percentage of GFP Positive Cells at 72 hours (20 μM),,50.5%
Cit-Met-Phe-Gly-Pip-Dab-Dab-Lys-Ala-Pro-Lys-Trp-Lys-Lys-Gly-Lys-Gln-Lys-Thr-Ser-Iph-Gly-Arg-Gly-Pip-Lys-Trp-Lys-Lys ([Cit]MFG[Api][Dab][Dab]KAPKWKKGKQKTS[Iph]GRG[Api]KWKK; also: PMO conjugate) [PMO-CXP4-CXP1],EC50,[1],59.2 µM
Dab-Gln-Dab-Thr-Ser-Iph-Gly-Arg-Gly-Dab-Dab-Trp-Dab-Dab-Lys-Trp-Lys-Lys ([Dab]Q[Dab]TS[Iph]GRG[Dab][Dab]W[Dab][Dab]KWKK; also: PMO conjugate) [PMO-CXP1AE],EC50,[2],6.38 µM
Dab-Gln-Dab-Thr-Ser-Iph-Gly-Arg-Gly-Pip-Dab-Trp-Dab-Dab-Lys-Trp-Lys-Lys ([Dab]Q[Dab]TS[Iph]GRG[Api][Dab]W[Dab][Dab]KWKK; also: PMO conjugate) [PMO-CXP1AC],EC50,[2],4.75 µM
Dab-Gln-Dab-Thr-Ser-Iph-Gly-Dab-Gly-Dab-Dab-Trp-Dab-Dab-Lys-Trp-Lys-Lys [PMO-CXP1AF],EC50,[2],5.73 µM
Dab-Gln-Dab-Thr-Ser-Iph-Gly-Dab-Gly-Pip-Dab-Trp-Dab-Dab-Lys-Trp-Lys-Lys [PMO-CXP1AD],EC50,[2],5.64 µM
Dab-Pro-Arg-Dab-Leu-His-Ser-Dab-Ala-Thr-Lys-Trp-Lys-Lys ([Dab]PR[Dab]LHS[Dab]ATKWKK; also: PMO conjugate) [PMO-CXP5],EC50,read-out: EC50 (at 72 h),10 µM
Dab-Val-Ala-Arg-Asn-Asn-Dab-Thr-Lys-Gly-Lys-Trp-Lys-Lys-Gly-Lys-Gln-Lys-Thr-Ser-Iph-Gly-Arg-Gly-Pip-Lys-Trp-Lys-Lys [PMO-CXP3-CXP1],EC50,[1],0.026 µM
GCTATTACCTTAACCCAG (all phosphorodiamidate morpholino (PMO)) [reference compound],EC50,read-out: EC50 (at 72 h),22.7 µM
Iph-Gln-Lys-Thr-Ser-Iph-Gly-Arg-Gly-Pip-Lys-Trp-Lys-Lys ([Iph]QKTS[Iph]GRG[Api]KWKK; also: PMO conjugate) [PMO-CXP1Q],Percentage of GFP Positive Cells at 72 hours (30 μM),,85%
Lys-Ala-Lys-Thr-Ser-Iph-Gly-Arg-Gly-Pip-Lys-Trp-Lys-Lys (KAKTS[Iph]GRG[Api]KWKK; also: PMO conjugate) [PMO-CXP1C],Percentage of GFP Positive Cells at 72 hours (20 μM),,50.0%
Lys-Gln-Ala-Thr-Ser-Iph-Gly-Arg-Gly-Pip-Lys-Trp-Lys-Lys (KQATS[Iph]GRG[Api]KWKK; also: PMO conjugate) [PMO-CXP1D],Percentage of GFP Positive Cells at 72 hours (20 μM),,48.2%
Lys-Gln-Iph-Thr-Ser-Iph-Gly-Arg-Gly-Pip-Lys-Trp-Lys-Lys (KQ[Iph]TS[Iph]GRG[Api]KWKK; also: PMO conjugate) [PMO-CXP1R],Percentage of GFP Positive Cells at 72 hours (30 μM),,87.6%
Lys-Gln-Lys-Ala-Ser-Iph-Gly-Arg-Gly-Pip-Lys-Trp-Lys-Lys (KQKAS[Iph]GRG[Api]KWKK; also: PMO conjugate) [PMO-CXP1E],Percentage of GFP Positive Cells at 72 hours (20 μM),,70.5%
Lys-Gln-Lys-Thr-Ala-Iph-Gly-Arg-Gly-Pip-Lys-Trp-Lys-Lys (KQKTA[Iph]GRG[Api]KWKK; also: PMO conjugate) [PMO-CXP1F],Percentage of GFP Positive Cells at 72 hours (20 μM),,65.5%
Lys-Gln-Lys-Thr-Ser-Ala-Gly-Arg-Gly-Pip-Lys-Trp-Lys-Lys (KQKTSAGRG[Api]KWKK; also: PMO conjugate) [PMO-CXP1G],Percentage of GFP Positive Cells at 72 hours (20 μM),,55.8%
Lys-Gln-Lys-Thr-Ser-Iph-Ala-Arg-Ala-Pip-Lys-Trp-Lys-Lys (KQKTS[Iph]ARA[Api]KWKK; also: PMO conjugate) [PMO-CXP1P],Percentage of GFP Positive Cells at 72 hours (20 μM),,41.6%
Lys-Gln-Lys-Thr-Ser-Iph-Ala-Arg-Gly-Pip-Lys-Trp-Lys-Lys (KQKTS[Iph]ARG[Api]KWKK; also: PMO conjugate) [PMO-CXP1H],Percentage of GFP Positive Cells at 72 hours (20 μM),,65.5%
Lys-Gln-Lys-Thr-Ser-Iph-Gly-Ala-Gly-Pip-Lys-Trp-Lys-Lys (KQKTS[Iph]GAG[Api]KWKK; also: PMO conjugate) [PMO-CXP1I],Percentage of GFP Positive Cells at 72 hours (20 μM),,42.0%
Lys-Gln-Lys-Thr-Ser-Iph-Gly-Arg-Ala-Pip-Lys-Trp-Lys-Lys (KQKTS[Iph]GRA[Api]KWKK; also: PMO conjugate) [PMO-CXP1J],Percentage of GFP Positive Cells at 72 hours (20 μM),,53.2%
Lys-Gln-Lys-Thr-Ser-Iph-Gly-Arg-Gly-Ala-Lys-Trp-Lys-Lys (KQKTS[Iph]GRGAKWKK; also: PMO conjugate) [PMO-CXP1K],Percentage of GFP Positive Cells at 72 hours (20 μM),,39.3%
Lys-Gln-Lys-Thr-Ser-Iph-Gly-Arg-Gly-Iph-Lys-Trp-Lys-Lys (KQKTS[Iph]GRG[Iph]KWKK; also: PMO conjugate) [PMO-CXP1T],Percentage of GFP Positive Cells at 72 hours (30 μM),,36.5%
Lys-Gln-Lys-Thr-Ser-Iph-Gly-Arg-Gly-Lys-Lys-Trp-Lys-Lys (KQKTS[Iph]GRGKKWKK; also: PMO conjugate) [PMO-CXP1Y],EC50,[3],14.4 µM
Lys-Gln-Lys-Thr-Ser-Iph-Gly-Arg-Gly-Pip-Ala-Trp-Lys-Lys (KQKTS[Iph]GRG[Api]AWKK; also: PMO conjugate) [PMO-CXP1L],Percentage of GFP Positive Cells at 72 hours (20 μM),,41.8%
Lys-Gln-Lys-Thr-Ser-Iph-Gly-Arg-Gly-Pip-Iph-Trp-Lys-Lys (KQKTS[Iph]GRG[Api][Iph]WKK; also: PMO conjugate) [PMO-CXP1U],Percentage of GFP Positive Cells at 72 hours (30 μM),,66.4%
Lys-Gln-Lys-Thr-Ser-Iph-Gly-Arg-Gly-Pip-Lys-Ala-Lys-Lys (KQKTS[Iph]GRG[Api]KAKK; also: PMO conjugate) [PMO-CXP1M],Percentage of GFP Positive Cells at 72 hours (20 μM),,51.0%
Lys-Gln-Lys-Thr-Ser-Iph-Gly-Arg-Gly-Pip-Lys-Trp-Ala-Lys (KQKTS[Iph]GRG[Api]KWAK; not fully specified (C-terminus); printed as Lys-Gln-Lys-Thr-Ser-Iph-Gly-Arg-Gly-Pip-Lys-Trp-Ala-Lys; also: PMO conjugate) [PMO-CXP1N],Percentage of GFP Positive Cells at 72 hours (20 μM),,45.4%
Lys-Gln-Lys-Thr-Ser-Iph-Gly-Arg-Gly-Pip-Lys-Trp-Iph-Lys [PMO-CXP1V],Percentage of GFP Positive Cells at 72 hours (30 μM),,86.4%
Lys-Gln-Lys-Thr-Ser-Iph-Gly-Arg-Gly-Pip-Lys-Trp-Lys-Ala-Lys-Trp-Lys-Lys (KQKTS[Iph]GRG[Api]KWKAKWKK; not fully specified (C-terminus); printed as Lys-Gln-Lys-Thr-Ser-Iph-Gly-Arg-Gly-Pip-Lys-Trp-Lys-Ala-Lys-Trp-Lys-Lys; also: PMO conjugate) [PMO-CXP1O],Percentage of GFP Positive Cells at 72 hours (20 μM),,39.2%
Lys-Gln-Lys-Thr-Ser-Iph-Gly-Arg-Gly-Pip-Lys-Trp-Lys-Iph-Lys-Trp-Lys-Lys (KQKTS[Iph]GRG[Api]KWK[Iph]KWKK; not fully specified (C-terminus); printed as Lys-Gln-Lys-Thr-Ser-Iph-Gly-Arg-Gly-Pip-Lys-Trp-Lys-Iph-Lys-Trp-Lys-Lys; also: PMO conjugate) [PMO-CXP1W],Percentage of GFP Positive Cells at 72 hours (30 μM),,94.11%
Lys-Gln-Lys-Thr-Ser-Iph-Gly-Arg-Gly-Pip-Lys-Trp-Lys-Lys-Gly-Lys-Gln-Lys-Thr-Ser-Iph-Gly-Arg-Gly-Pip-Lys-Trp-Lys-Lys (KQKTS[Iph]GRG[Api]KWKKGKQKTS[Iph]GRG[Api]KWKK; not fully specified (C-terminus); printed as Lys-Gln-Lys-Thr-Ser-Iph-Gly-Arg-Gly-Pip-Lys-Trp-Lys-Lys-Gly-Lys-Gln-Lys-Thr-Ser-Iph-Gly-Arg-Gly-Pip-Lys-Trp-Lys-Lys; also: PMO IVS2-654 conjugate) [PMO-CXP1-CXP1],EC50,[1],1.07 µM
Lys-Gln-Lys-Thr-Ser-Iph-Gly-Iph-Gly-Pip-Lys-Trp-Lys-Lys (KQKTS[Iph]G[Iph]G[Api]KWKK; not fully specified (C-terminus); printed as Lys-Gln-Lys-Thr-Ser-Iph-Gly-Iph-Gly-Pip-Lys-Trp-Lys-Lys; also: PMO conjugate) [PMO-CXP1S],Percentage of GFP Positive Cells at 72 hours (30 μM),,82.3%
Lys-Gln-Lys-Thr-Ser-Iph-Gly-Lys-Gly-Pip-Lys-Trp-Lys-Lys (KQKTS[Iph]GKG[Api]KWKK; not fully specified (C-terminus); printed as Lys-Gln-Lys-Thr-Ser-Iph-Gly-Lys-Gly-Pip-Lys-Trp-Lys-Lys; also: PMO conjugate) [PMO-CXP1AA],EC50,[3],13.1 µM
Lys-Gln-Lys-Thr-Ser-Lys-Gln-Lys-Thr-Ser-Iph-Gly-Arg-Gly-Pip-Lys-Trp-Lys-Lys (KQKTSKQKTS[Iph]GRG[Api]KWKK; not fully specified (C-terminus); printed as Lys-Gln-Lys-Thr-Ser-Lys-Gln-Lys-Thr-Ser-Iph-Gly-Arg-Gly-Pip-Lys-Trp-Lys-Lys; also: PMO conjugate) [SC-CXP1],EC50,[1],4.01 µM
Lys-Gln-Lys-Thr-Ser-Phe-Gly-Arg-Gly-Lys-Lys-Trp-Lys-Lys (KQKTSFGRGKKWKK; also: PMO conjugate) [PMO-CXP1Z],EC50,[3],21.1 µM
Lys-Gln-Lys-Thr-Ser-Phe-Gly-Arg-Gly-Pip-Lys-Trp-Lys-Lys (KQKTSFGRG[Api]KWKK; not fully specified (C-terminus); printed as Lys-Gln-Lys-Thr-Ser-Phe-Gly-Arg-Gly-Pip-Lys-Trp-Lys-Lys; also: PMO conjugate) [PMO-CXP1X],EC50,[3],17.4 µM
"Lys-Trp-Lys-Lys-Gln-Lys-Thr-Ser-Iph-Gly-Arg-Gly-Pip-Lys-Trp-Lys-Lys (KWKKQKTS[Iph]GRG[Api]KWKK; not fully specified (N-terminus, C-terminus); printed as Lys-Trp-Lys-Lys-Gln-Lys-Thr-Ser-Iph-Gly-Arg-Gly-Pip-Lys-Trp-Lys-Lys; also: PMO conjugate) [SD-CXP1]",EC50,[1],2.28 µM

# — patent US20250171776A1, “NON-CANONICAL CELL-PENETRATING PEPTIDES FOR ANTISENSE OLIGOMER DELIVERY” (priority 2023, published 2025)
